Assay results as given in patent US9884874B2, “Bromodomain-inhibiting compounds and pharmaceutical composition comprising same for preventing or treating a cancer” (KAINOS MEDICINE, INC., priority 2014, dated 2018).

Columns and labels:
human BRD4 bromodomain 1 = human BRD4 bromodomain 1 (Homo sapiens (Human), UniProt O60885); assay: Bromodomain binding assay (BRD4 Alpha-screen); conditions: acetylated histone H4 peptide
Experimental: Bromodomain binding assays were carried out in Reaction Biology (PA, USA) to test the degrees of the inventive compounds in inhibiting the human BRD4 bromodomain 1 by Alpha-screen assay method.
Recombinant human BRD4 bromodomain 1 expressed in E. coli with N-terminal His-tag was used as the enzyme target.
A synthetic peptide ([…]-GSGSK-biotin) containing 1 to 21th amino acids of histone H4 acetylated at lysine 5, 8, 12 and 16 and conjugated to biotin was purchased from Millipore.
BRD4-1 (44 to 170th amino acids; Genbank Accession # NM_058243) was expressed in E. coli with N-terminal His-tag (see, Ni-NTA spin Kit Handbook (Qiagen), second edition, January, 2008). Nickel-Chelate ALPHA acceptor beads (Perkin Elmer) were used to specifically bind BRD4-1, and ALPHA streptavidin donor beads (Perkin Elmer) were used because they specifically recognized the biotinylated H4 peptide.
BRD binding assays were performed in a mixture comprising 50 mM Hepes (pH7.5), 100 mM NaCl, 0.05% CHAPS, 0.1% BSA, and 1% DMSO. After an assay reaction time of 60 min at 25° C., binding was measured with streptavidin donor beads and nickel-chelate acceptor beads. ALPHA signal was detected on Enspire (Ex/Em=680/520-620 nm). IC50 values were calculated from the fit of the dose-response curves. All IC50 values represent geometric mean values of a minimum of four determinations. These assays generally produced results within 3-fold of the reported mean.

[1] = tested on: LnCAP (human prostatic adenocarcinoma cell line); assay: Anti-proliferative activity test (CellTiter-Glo), LnCAP; format: cell-based; conditions: first value of LnCAP/MV4-11 cell, read-out: Cell proliferation IC50 (LnCAP)
Experimental: (§1) IC50 (uM) of the compounds obtained in Examples 1 to 18 against hematological cancer cells and solid tumors was measured for identifying anti-proliferative activities.
(§2) A human prostatic adenocarcinoma cell line, LnCAP (ATCC®, CRL-1740) and human leukemia cell line MV4-11 (ATCC®, CRL-9591) were used to test the degrees of the compounds 1 to 18 in inhibiting the cancer cell growth. The testing cell concentration was adjusted to 6.7×10^3 cells/ml with a culture medium supplemented with 10% FBS, in the temperature of 37° C., 5% CO2 and 95% humidity. Culture media and FBS were purchased from GIBCO. 90 μL of cell suspensions thus obtained was added to two 96-well plates with the final cell density of 600 cells/well, followed by addition of 10 μL of culture medium to each well of plate. The plates were incubated overnight in a humidified incubator at 37° C. with 5% CO2.
(§3) Compounds 1 to 18 were each dissolved with dimethylsulfoxide (DMSO) or phosphate buffer solution (PBS) as a stock solution, and 200× solutions of test compound (2 mM) using DMSO were prepared. Then, the DMSO solution thus obtained was diluted 20-fold with culture medium or PBS to obtain 10× working solution. 10 μL of 10× working solution (drug solution) was dispensed to each well (triplicate for each concentration). The final concentration of DMSO in culture medium was 0.5% [v/v].
(§4) Cell viability was determined using CellTiter-Glo® (CTG) assay. 100 μL of CellTiter-Glo® was added to the equal volume of the cultured cells to read luminescence in EnVision Multi Label Reader.

[2] = tested on: MV4-11 (human leukemia cell line); assay: Anti-proliferative activity test (CellTiter-Glo), MV4-11; format: cell-based; conditions: second value of LnCAP/MV4-11 cell, read-out: Cell proliferation IC50 (MV4-11)
Experimental: as §1, §2, §3, §4

[3] = Human liver microsomal stability/clearance; format: in vitro ADME; conditions: human liver microsomes; first value of Human/Mouse cell; read-out: Liver microsomal clearance (Human)
Experimental: (§5) Human and mouse liver microsomal clearance assays were carried out in CROWN Biosciences (Taicang, China). The human liver microsomes (Cat No. X008067, Lot No. KQB) and mouse liver microsomes (Cat No. M1000, Lot No. 1210302) were purchased from Celsis and Xenotech, respectively.
(§6) 5 μL of test compound stock solution was diluted with 495 μL of 1:1 Methanol/Water (final concentration: 100 μM, 50% MeOH) and combined with 534 μL of the respective liver microsome solution (final concentration: 1.111 μM, 0.555% MeOH). The final concentration of the liver microsome solution was 0.7 mg protein/mL.
(§7) Incubations of the liver microsome solutions were performed in a 96 well plate at 37° C. 90 μL of the liver microsome solutions were added to Blank, and 90 μL of working solution of the test compound was added to all plates except the Blank.
(§8) All plates thus obtained were warmed in water bath at 37° C. for 10 min, and 10 μL of NADPH co-factor solution comprising 42 mg of β-nicotinamide adenine dinucleotide phosphate (Sigma Cat. No. N0505 Lot 020M7009V), 84 mg of isocitric acid (Sigma Cat. No. 11252 Lot 119K1099) and 0.478 mL of isocitric dehydrogenase (Sigma Cat. No. 12002 Lot 086K7055, 15 units/mg protein, warmed in water bath at 37° C. for 5 min was added to the plates. The resulting plates were incubated at 37° C. in the following order: T60 (The test compounds were incubated with the liver microsomal solution and NADPH for 60 min at 37° C.), T30 (such as for 30 min.), and T10 (such as for 10 min.). 300 μL of a cold (4° C.) stop solution (acetonitrile (ACN) including 500 nM of tolbutamide as internal standard) and 10 μL of NADPH co-factor solution to starting plate (T0: 100% of the parent compound without any reaction) were added to the plates. The reaction was stopped by adding 300 μL of the cold (4° C.) stop solution to the other plates in the following order: T10 first, then T30 and T60.
(§9) The samples were centrifuged at 4,000 rpm for 20 min and transferred to Bioanalytical Services for liquid chromatography-mass spectrometry (LC-MS)/MS (Waters UPLC/API 4000, 10 μL injection) analysis.

[4] = Mouse liver microsomal stability/clearance; format: in vitro ADME; conditions: mouse liver microsomes; second value of Human/Mouse cell; read-out: Liver microsomal clearance (Mouse)
Experimental: as §5, §6, §7, §8, §9

[5] = Animal pharmacokinetics in ICR mice; format: in vivo; conditions: ICR, mouse, 10 mg/kg
Experimental: Pharmacokinetics of the compounds of 1, 2, 7, 8 11 and 15 were evaluated in ICR mice (6˜8 weeks, 20˜25 g) following intravenous (IV) administration at 10 mg/kg and per oral (PO) administration at 10 mg/kg dose level, respectively. Especially, the additional dose level of Compound 1 was 30 mg/kg.
For serum compound analysis, blood samples were collected by cardiac puncture over 24 hr time course. 20 μL of spiked plasma was added into a 96-well plate, adding ten volumes of internal standard (IS) in acetonitrile (ACN) to the obtained precipitated protein mixed thoroughly, centrifuged at 4,000 rpm for 10 min. 150 μL of supernatant thus obtained was transferred to another pre-labeled 96-well plate, mixed with 150 μL of water. 5 μL or 10 μL of the mixture was injected into the LC-MS system under the following conditions:
Column: API-4000+Waters UPLC (TCLM08);
Lower limit of quantification (LLOQ) was at 1 ng/mL. Pharmacokinetic parameters of half-life (T1/2), clearance (CL), maximum plasma concentration (Cmax), mean residence time (MRT) and bioavailability (F %), plasma exposure (AUC) of the compound were calculated using Phoenix WinNonlin 6.3 (non-compartmental model).

OPM-2 (multiple myeloma) = assay: Anti-proliferative activity, OPM-2; format: cell-based; conditions: Homo sapiens, read-out: Cell proliferation, IC50
[6] = tested on: A375 (malignant melanoma); assay: Anti-proliferative activity, A375; format: cell-based; conditions: Homo sapiens, A-375, read-out: Cell proliferation, IC50
SK-LU-1 (adenocarcinoma) = assay: Anti-proliferative activity, SK-LU-1; format: cell-based; conditions: Homo sapiens, SKLU-1 (Adenocarcinoma), read-out: Cell proliferation, IC50

Row | SMILES | IC50 (human BRD4 bromodomain 1) | IC50 [1] | IC50 [2] | microsomal CLint at 1 µM [3] | microsomal CLint at 1 µM [4] | AUC ([5]; in vivo, IV) | clearance ([5]; in vivo, IV) | AUC ([5]; in vivo, PO) | bioavailability ([5]; in vivo, PO) | AUC ([5]; plasma, IV) | MRT ([5]; plasma, IV) | clearance ([5]; plasma, IV) | AUC ([5]; plasma, PO) | MRT ([5]; plasma, PO) | bioavailability ([5]; plasma, PO) | IC50 (OPM-2 (multiple myeloma)) | IC50 [6] | IC50 (SK-LU-1 (adenocarcinoma)) | MRT ([5]; in vivo, IV) | MRT ([5]; in vivo, PO)
1 | Cc1nnc2n1-c1ccc(-c3cnn(C)c3)cc1C(c1ccc(Cl)cc1)=N[C@H]2COS(C)(=O)=O [Compound 11, (R)-(6-(4-chlorophenyl)-1-methyl-8-(1-methyl-1H-pyrazol-4-yl)-4H-benzo[f][1,2,4]triazolo[4,3-a][1,4]diazepin-4-yl)methyl methanesulfonate] | 87 nM | 190 nM | 320 nM | 8.6 µL/min/mg | 8.6 µL/min/mg | 20 µM·h | 16.8 mL/min/kg | 11.7 µM·h | 58.4% | – | – | – | – | – | – | – | – | – | – | –
2 | COc1ccc2c(c1)C(c1ccc(Cl)cc1)=N[C@@H](COS(N)(=O)=O)c1nnc(C)n1-2 [Compound 8, (R)-(6-(4-chlorophenyl)-8-methoxy-1-methyl-4H-benzo[f][1,2,4]triazolo[4,3-a][1,4]diazepin-4-yl)methyl sulfamate] | 220 nM | 960 nM | 1490 nM | 5 µL/min/mg | 5 µL/min/mg | 41 µM·h | 9 mL/min/kg | 31.5 µM·h | 62.3% | – | – | – | – | – | – | – | – | – | – | –
3 | Cc1sc2c(c1C)C(c1ccc(Cl)cc1)=N[C@@H](COS(C)(=O)=O)c1nnc(C)n1-2 [Compound 15, (R)-(4-(4-chlorophenyl)-2,3,9-trimethyl-6H-thieno[3,2-f][1,2,4]triazolo[4,3-a][1,4]diazepin-6-yl)methyl methanesulfonate] | 100 nM | 480 nM | 500 nM | 20 µL/min/mg | 22 µL/min/mg | – | – | – | – | 27 µM·h | 1.9 h | 13.5 mL/min/kg | 31 µM·h | 2.5 h | 105% | – | – | – | – | –
4 | CCS(=O)(=O)OC[C@@H]1N=C(c2ccc(Cl)cc2)c2cc(OC)ccc2-n2c(C)nnc21 [Compound 2, (R)-(6-(4-chlorophenyl)-8-methoxy-1-methyl-4H-benzo[f][1,2,4]triazolo[4,3-a][1,4]diazepin-4-yl)methyl ethanesulfonate] | 220 nM | 600 nM | 410 nM | 1.9 µL/min/mg | 8.1 µL/min/mg | 73 µM·h | 4.9 mL/min/kg | 66 µM·h | 89.8% | – | – | – | – | – | – | 650 nM | 9.3 µM | 1450 nM | 3.9 h | 4.1 h
5 | COc1ccc2c(c1)C(c1ccc(C#N)cc1)=N[C@@H](COS(C)(=O)=O)c1nnc(C)n1-2 [Compound 7, (R)-(6-(4-cyanophenyl)-8-methoxy-1-methyl-4H-benzo[f][1,2,4]triazolo[4,3-a][1,4]diazepin-4-yl)methyl methanesulfonate] | 230 nM | 830 nM | 3340 nM | 2.1 µL/min/mg | 3.4 µL/min/mg | 17.3 µM·h | 22.5 mL/min/kg | 8.19 µM·h | 47.4% | – | – | – | – | – | – | – | – | – | – | –
